Source: ChEMBL document CHEMBL3797052 (Eur J Med Chem, 2016)

Legend:
[1] = Antiproliferative activity against human UACC257 cells assessed as cell growth at 10^-8 M after 48 hrs by sulforhodamine B assay; type: functional; conditions: UACC-257, 48 h, read-out: Activity
[2] = Antiproliferative activity against human OVCAR8 cells assessed as growth inhibition after 48 hrs by sulforhodamine B assay; type: functional; conditions: OVCAR-8, 48 h
[3] = tested on: A498; test: Antiproliferative activity against human A498 cells assessed as cell growth at 10^-7 M after 48 hrs by sulforhodamine B assay; type: functional; conditions: A498, 48 h, read-out: Activity
[4] = Antiproliferative activity against human RXF393 cells assessed as cell growth at 10^-7 M after 48 hrs by sulforhodamine B assay; type: functional; conditions: RXF 393, 48 h, read-out: Activity
[5] = Antiproliferative activity against human LOXIMVI cells assessed as cell growth at 10^-7 M after 48 hrs by sulforhodamine B assay; type: functional; conditions: LOX IMVI, read-out: Activity
[6] = tested on: NCI-H322M; test: Antiproliferative activity against human NCI-H322M cells assessed as cell growth at 10^-4 M after 48 hrs by sulforhodamine B assay; type: functional; conditions: read-out: Activity
[7] = Antiproliferative activity against human DU145 cells assessed as growth inhibition after 48 hrs by sulforhodamine B assay; type: functional; conditions: DU-145, 48 h; for CC50: read-out: LC50 (the source's name)
[8] = Antiproliferative activity against human UACC257 cells assessed as cell growth at 10^-7 M after 48 hrs by sulforhodamine B assay; type: functional; conditions: UACC-257, 48 h, read-out: Activity
[9] = tested on: SK-MEL-28; test: Antiproliferative activity against human SK-MEL-28 cells assessed as growth inhibition after 48 hrs by sulforhodamine B assay; type: functional; conditions: SK-MEL-28, 48 h; for CC50: read-out: LC50 (the source's name)
[10] = Antiproliferative activity against human SF539 cells assessed as cell growth at 10^-6 M after 48 hrs by sulforhodamine B assay; type: functional; conditions: SF-539, 48 h, read-out: Activity
[11] = Antiproliferative activity against human BT549 cells assessed as cell growth at 10^-8 M after 48 hrs by sulforhodamine B assay; type: functional; conditions: BT-549, 48 h, read-out: Activity
[12] = tested on: ACHN; test: Antiproliferative activity against human ACHN cells assessed as growth inhibition after 48 hrs by sulforhodamine B assay; type: functional
[13] = Antiproliferative activity against human SKOV3 cells assessed as cell growth at 10^-4 M after 48 hrs by sulforhodamine B assay; type: functional; conditions: SK-OV-3, 48 h, read-out: Activity
[14] = Antiproliferative activity against human TK10 cells assessed as cell growth at 10^-4 M after 48 hrs by sulforhodamine B assay; type: functional; conditions: TK-10, 48 h, read-out: Activity
[15] = tested on: MDA-MB-435; test: Antiproliferative activity against human MDA-MB-435 cells assessed as cell growth at 10^-7 M after 48 hrs by sulforhodamine B assay; type: functional; conditions: MDA-MB-435, 48 h, read-out: Activity
[16] = Antiproliferative activity against human SF539 cells assessed as growth inhibition after 48 hrs by sulforhodamine B assay; type: functional; conditions: SF-539, 48 h
[17] = Antiproliferative activity against human HL-60(TB) cells assessed as cell growth at 10^-7 M after 48 hrs by sulforhodamine B assay; type: functional; conditions: HL-60, 48 h, read-out: Activity
[18] = target: RAF proto-oncogene serine/threonine-protein kinase (Homo sapiens, UniProt P04049); test: Inhibition of human C-RAF measured after 40 mins by scintillation counting
[19] = tested on: SK-MEL-2; test: Antiproliferative activity against human SK-MEL-2 cells assessed as cell growth at 10^-4 M after 48 hrs by sulforhodamine B assay; type: functional; conditions: SK-MEL-2, 48 h, read-out: Activity
[20] = Antiproliferative activity against human RXF393 cells assessed as cell growth at 10^-6 M after 48 hrs by sulforhodamine B assay; type: functional; conditions: RXF 393, 48 h, read-out: Activity
[21] = Antiproliferative activity against human SF295 cells assessed as cell growth at 10^-7 M after 48 hrs by sulforhodamine B assay; type: functional; conditions: SF-295, 48 h, read-out: Activity
[22] = tested on: EKVX; test: Antiproliferative activity against human EKVX cells assessed as cell growth at 10^-4 M after 48 hrs by sulforhodamine B assay; type: functional; conditions: read-out: Activity
[23] = Antiproliferative activity against human DU145 cells assessed as cell growth at 10^-6 M after 48 hrs by sulforhodamine B assay; type: functional; conditions: DU-145, 48 h, read-out: Activity
[24] = tested on: SK-MEL-2; test: Antiproliferative activity against human SK-MEL-2 cells assessed as cell growth at 10^-6 M after 48 hrs by sulforhodamine B assay; type: functional; conditions: SK-MEL-2, 48 h, read-out: Activity
[25] = Antiproliferative activity against human NCI-ADR-RES cells assessed as cell growth at 10^-6 M after 48 hrs by sulforhodamine B assay; type: functional; conditions: read-out: Activity
[26] = Antiproliferative activity against human HCC2998 cells assessed as cell growth at 10^-7 M after 48 hrs by sulforhodamine B assay; type: functional; conditions: HCC 2998, 48 h, read-out: Activity
[27] = Antiproliferative activity against human RPMI8226 cells assessed as cell growth at 10^-7 M after 48 hrs by sulforhodamine B assay; type: functional; conditions: RPMI-8226, 48 h, read-out: Activity
[28] = tested on: MDA-MB-231; test: Antiproliferative activity against human MDA-MB-231 cells assessed as cell growth at 10^-6 M after 48 hrs by sulforhodamine B assay; type: functional; conditions: MDA-MB-231, 48 h, read-out: Activity
[29] = tested on: Malme-3M; test: Antiproliferative activity against human MALME-3M cells assessed as cell growth at 10^-6 M after 48 hrs by sulforhodamine B assay; type: functional; conditions: read-out: Activity
[30] = Antiproliferative activity against human OVCAR3 cells assessed as cell growth at 10^-7 M after 48 hrs by sulforhodamine B assay; type: functional; conditions: OVCAR-3, 48 h, read-out: Activity
[31] = tested on: T47D; test: Antiproliferative activity against human T47D cells assessed as cell growth at 10^-7 M after 48 hrs by sulforhodamine B assay; type: functional; conditions: read-out: Activity
[32] = Antiproliferative activity against human NCI-ADR-RES cells assessed as cell growth at 10^-4 M after 48 hrs by sulforhodamine B assay; type: functional; conditions: read-out: Activity
[33] = tested on: 786-0; test: Antiproliferative activity against human 786-0 cells assessed as cell growth at 10^-7 M after 48 hrs by sulforhodamine B assay; type: functional; conditions: 786-0, 48 h, read-out: Activity
[34] = tested on: KM12; test: Antiproliferative activity against human KM12 cells assessed as cell growth at 10^-8 M after 48 hrs by sulforhodamine B assay; type: functional; conditions: KM12, 48 h, read-out: Activity
[35] = tested on: SK-MEL-2; test: Antiproliferative activity against human SK-MEL-2 cells assessed as cell growth at 10^-8 M after 48 hrs by sulforhodamine B assay; type: functional; conditions: SK-MEL-2, 48 h, read-out: Activity
[36] = tested on: NCI-H460; test: Antiproliferative activity against human NCI-H460 cells assessed as cell growth at 10^-7 M after 48 hrs by sulforhodamine B assay; type: functional; conditions: NCI-H460, 48 h, read-out: Activity
[37] = Antiproliferative activity against human UACC257 cells assessed as growth inhibition after 48 hrs by sulforhodamine B assay; type: functional; conditions: UACC-257, 48 h; for CC50: read-out: LC50 (the source's name)

RAF proto-oncogene serine/threonine-protein kinase, sequence (P04049 whole entry): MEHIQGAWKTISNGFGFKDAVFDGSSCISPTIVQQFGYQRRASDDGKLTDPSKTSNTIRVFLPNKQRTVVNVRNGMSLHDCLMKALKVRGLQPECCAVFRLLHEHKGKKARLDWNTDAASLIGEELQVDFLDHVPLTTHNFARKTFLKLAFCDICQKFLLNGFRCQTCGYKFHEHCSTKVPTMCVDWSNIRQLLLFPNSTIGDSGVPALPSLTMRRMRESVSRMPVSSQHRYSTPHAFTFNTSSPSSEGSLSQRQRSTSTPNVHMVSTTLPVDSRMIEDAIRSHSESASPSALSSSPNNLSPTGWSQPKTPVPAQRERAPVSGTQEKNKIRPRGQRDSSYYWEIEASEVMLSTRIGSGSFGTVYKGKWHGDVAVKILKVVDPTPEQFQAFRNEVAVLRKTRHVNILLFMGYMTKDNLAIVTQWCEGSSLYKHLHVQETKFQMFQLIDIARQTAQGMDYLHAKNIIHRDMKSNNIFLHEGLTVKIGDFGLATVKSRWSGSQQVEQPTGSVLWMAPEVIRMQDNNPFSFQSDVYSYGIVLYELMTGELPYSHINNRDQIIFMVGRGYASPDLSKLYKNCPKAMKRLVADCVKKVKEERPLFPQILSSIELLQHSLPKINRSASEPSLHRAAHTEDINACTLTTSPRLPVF

SMILES: CNC(=O)c1cc(Oc2ccc3nc(NC(=O)c4cc(C(F)(F)F)cc(C(F)(F)F)c4)sc3c2)ccn1
- growth at 0.01 µM [1]: 87%
- GI50 [2]: 3.06 µM
- LC50 [2]: 69.9 µM
- TGI [2]: 13 µM
- growth at 0.1 µM [3]: 67%
- growth at 0.1 µM [4]: 94%
- growth at 0.1 µM [5]: 96%
- growth at 100 µM [6]: -42%
- GI50 [7]: 3.69 µM
- TGI [7]: 15.9 µM
- CC50 [7]: 65 µM
- growth at 0.1 µM [8]: 95%
- GI50 [9]: 3.76 µM
- TGI [9]: 43.7 µM
- CC50 [9]: > 100 µM
- growth at 1 µM [10]: 87%
- growth at 0.01 µM [11]: 97%
- GI50 [12]: 3.26 µM
- LC50 [12]: 43.2 µM
- TGI [12]: 11.8 µM
- growth at 100 µM [13]: -56%
- growth at 100 µM [14]: -58%
- growth at 0.1 µM [15]: 92%
- GI50 [16]: 3.14 µM
- LC50 [16]: 71.1 µM
- TGI [16]: 14.8 µM
- growth at 0.1 µM [17]: 97%
- IC50 [18]: 0.695 µM
- growth at 100 µM [19]: -53%
- growth at 1 µM [20]: 97%
- growth at 0.1 µM [21]: 89%
- growth at 100 µM [22]: -27%
- growth at 1 µM [23]: 94%
- growth at 1 µM [24]: 90%
- growth at 1 µM [25]: 96%
- growth at 0.1 µM [26]: 108%
- growth at 0.1 µM [27]: 98%
- growth at 1 µM [28]: 114%
- growth at 1 µM [29]: 80%
- growth at 0.1 µM [30]: 102%
- growth at 0.1 µM [31]: 88%
- growth at 100 µM [32]: -38%
- growth at 0.1 µM [33]: 90%
- growth at 0.01 µM [34]: 101%
- growth at 0.01 µM [35]: 88%
- growth at 0.1 µM [36]: 105%
- GI50 [37]: 2.89 µM
- TGI [37]: 8.12 µM
- CC50 [37]: > 100 µM

SMILES: CNC(=O)c1cc(Oc2ccc(NC(=O)Nc3ccc(Cl)c(C(F)(F)F)c3)cc2)ccn1 [SORAFENIB]
- GI50 [2]: 2.51 µM
- TGI [2]: 10 µM
- GI50 [7]: 3.16 µM
- TGI [7]: 10 µM
- CC50 [7]: 50.1 µM
- GI50 [9]: 2.51 µM
- TGI [9]: 7.94 µM
- CC50 [9]: 31.6 µM
- GI50 [12]: 2.51 µM
- TGI [12]: 12.6 µM
- TGI [16]: 10 µM
- GI50 [37]: 2 µM
- TGI [37]: 5.01 µM
- CC50 [37]: 20 µM
